# Experimental data: US11241396B2 (Gateway Health Alliances, Inc., priority 2015, dated 2022)
# “Also recorded” adds a separate entry of the source. Read-outs that look alike come from different tables or passages of the source.
# Key:
# animal = conditions: 500 mg/kg, bw/day for 3 months dosing; cited from earlier work
# platelets [1] = conditions: 4 mg/kg/day; cited from earlier work
# humans [2] = conditions: cited from earlier work
# humans [3] = conditions: cited from earlier work; remark: listed apart in the source
# [4] = Plasma resveratrol concentrations (HPLC) after capsule intake; assay type: in vivo, human; conditions: 90 mg, median (interquartile range), n=30
# Procedure: The study included two separate investigations: a one hour study and a two hour study (FIG. 1). […] The two hour study was designed to fully assess and compare the responses to trans-res and ResArgin™.
# Participants were randomized by block design to consumed trans-res or ResArgin™ in random order. Randomization was performed by the study coordinator following a predetermined plan formulated via a web-based random number generator. […] The study included two separate investigations: a one hour study and a two hour study (FIG. 6). During each study visit, which took place after an overnight fast, a baseline measurement of PAT and a blood sample were collected, followed by consumption of the assigned treatment. During the one hour study, PAT measurements and blood samples were collected thirty and sixty minutes after the capsules were consumed. During the two hour study, a PAT measurement and blood sample were taken two hours after the capsules were consumed.
# Briefly, plasma was treated with acidified methanol [0.5% (v/v) of acetic acid in methanol; precooled to −20° C.] containing an appropriate recovery standard. The mixture was stored at −80 C for 12 hours to allow for cryo-assisted protein precipitation, and then centrifuged for 15 min at 16,500×g. […]
# platelets [5] = conditions: 10 mg daily for three months; cited from earlier work
# [6] = tested on: human umbilical vein endothelial cells; conditions: 1 μM; cited from earlier work
# platelets [7] = assay: Platelet function by whole blood/optical lumi-aggregometer after capsule intake; assay type: in vivo, human
# Procedure: Platelet reactivity during clinical screening was assessed by a PFA-100 (Siemens, Deerfield, Ill.), which measures platelet function by simulating arterial hemostasis under blood flow shear stress. During the intervention, platelet function was assessed by a whole blood/optical lumi-aggregometer (Chrono-log Model 700, Havertown, Pa.). Briefly, platelet aggregation was measured via electrical impedence (or electrical resistance), whereas lumi-aggregometry was used to examine aggregation together with adenosine triphosphate (hereafter, “ATP”) release, which is determined with firefly luciferin-luciferase system. […] One of the following agonists was used to stimulate platelets: collagen (1 μL and 5 μL), AA (10 μL) or ADP (10 μL). ATP release was measured only when platelets were activated with ADP. The aggregation was measured over a period of six minutes, following the addition of an agonist.
# cyclooxygenase (COX) = conditions: in vitro studies; cited from earlier work
# postmenopausal women = assay: Microvascular function by peripheral arterial tonometry (Endo-PAT2000), randomized double-blind crossover trial; assay type: in vivo, human; conditions: combined data; univariate ANOVA with Bonferroni post hoc
# platelets [8] = conditions: 10-1,000 μM in vitro; cited from earlier work
# [9] = 10 mg per day for three months, stable coronary artery disease patients
# [10] = 1 μL collagen, one hour post consumption vs baseline
# [11] = 10 μL arachidonic acid, one hour after intake vs baseline
smiles,measurement,setting,value
"Oc1ccc(C=Cc2cc(O)cc(O)c2)cc1 [Resveratrol, 3,5,4′-trihydroxystilbene]",Toxicity in animal studies,animal,no toxicity effect
same,ADP-induced platelet aggregation,platelets [1],inhibited
same,FMD,humans [2]; [9],enhanced FMD response
same,FMD,humans [2]; 75 mg daily for six weeks,enhanced FMD response
same,Plasminogen activator inhibitor type 1 (PAI-1),"humans [3]; 8 mg daily for six months, then 16 mg per day for six months",significant decrease
same,Total cholesterol,humans [3]; 250 mg for three months,decrease
same,Low density lipoprotein (LDL) cholesterol,humans [3]; daily intake of 8 mg for six months,Reduction
"Oc1ccc(/C=C/c2cc(O)cc(O)c2)cc1 [trans-res, Trans-resveratrol]",Plasma resveratrol concentration,[4]; 30 minutes after intake,"2.04 (0.82, 2.54)"
same,Plasma resveratrol concentration,[4]; 60 minutes after intake,"2.65 (1.69, 3.44)"
same,Platelet aggregation,platelets [5],significantly reduced
same,Expression of eNOS,[6],up-regulated
same,Lag time of platelet aggregation,platelets [7]; [10],significant increase
same,Slope of platelet aggregation,platelets [7]; [10],not for the trans-res group
same,Platelet function changes,"platelets [7]; 5 μL collagen, one hour post consumption vs baseline",no significant changes
same,"Slope, lumi-aggregometry","platelets [7]; 10 μL ADP, one hour post consumption vs baseline",significant decrease
same,Area under the curve (AUC) of aggregation,platelets [7]; [11],no changes were noted
same,Maximum aggregation,platelets [7]; [11],no changes were noted
same,FMD,humans [2]; [9],significant improvement in FMD
same,FMD,humans [2]; 75 mg daily for six weeks,significant increase in FMD
same,FMD,"humans [2]; 75 mg, one hour post-consumption",significant increase in FMD
same,FMD,"humans [2]; single dose of 30, 90 and 270 mg, one hour after consumption",increase in FMD
same,Cyclooxygenase (COX) activity,cyclooxygenase (COX),can inhibit
same,FRHI one and two hours post-consumption compared to baseline (significance),postmenopausal women,No differences were observed; also recorded: no changes were noted
same,RHI one hour after intake compared to baseline (significance),postmenopausal women,not observed
same,Platelet aggregation,platelets [8],significantly reduced aggregation in a dose dependent fashion
